One may read the melting point as the temperature, or range, at which the solid turns liquid. Broadly, the ED50 is the dose that gives a 50% effect, or the effect in half of the subjects.

In data set [1] the test system is H influenzae. The data set can be described thus: MIC, CLSI agar dilution method. Format: cell-based. Particulars: 18 hrs at 37° C. As for the experimental part: (§1) The antibacterial activity of compounds of the invention was evaluated by determining the minimal inhibitory concentration (MIC) according to standard CLSI agar dilution method. The media used for preculture and main culture were Tryptic Soya broth (Difco) and Mueller Hinton medium (Difco), respectively. The Mueller Hinton agar was supplemented with 5% sheep blood for streptococci and pneumococci, and with haemoglobin as well as NAD (nicotinamide adenine dinucleotide) for Haemophilus influenzae, respectively. Overnight cultures were diluted with buffered saline (pH 7.2) to the final cell density of 5×10^6-10^7 CFU/ml, and each bacterial suspension was applied with a replicator (Denley's multipoint inoculator, UK) onto a series of Mueller-Hinton agar plates containing antibacterial agents at various concentrations. Final inoculum was approximately 10^4 CFU/spot. The plates were incubated for 18 hrs at 37° C. The MIC was defined as the lowest concentration of an antibacterial agent that inhibits the development of visible microbial growth on agar.
(In agar dilution, organisms are placed on agar that contains the substance at set levels.)

Data set [2] concerns S pneumoniae 3773, a high level ermb strain. The data set can be described thus: MIC, CLSI agar dilution method. The class given is cell-based. To be noted: S pneumoniae 3773, high level ermb strain, 18 hrs at 37° C. On the procedure:
as §1

The test system of data set [3] is S pneumoniae ermb strains. The data set can be described thus: MIC, CLSI agar dilution method. The class given is cell-based. Particulars: 18 hrs at 37° C. On the procedure:
as §1

Data set [4] deals with S pneumoniae mef strains. In words: MIC, CLSI agar dilution method. Format: cell-based. Particulars: 18 hrs at 37° C. On the procedure:
as §1

Data set [5] has as its system S pneumoniae sensitive strains. The data set can be described thus: MIC, CLSI agar dilution method. Format: cell-based. To be noted: 18 hrs at 37° C. As for the experimental part: as §1
Data set [6] relates to S pyogene 3530, a high level ermb strain. The data set can be described thus: MIC, CLSI agar dilution method. To be noted: S pyogene 3530, high level ermb strain, 18 hrs at 37° C. The class given is cell-based. On the procedure:
as §1

The test system of data set [7] is S pneumoniae 3773. In words: In vivo oral efficacy (ED50) in mice intraperitoneally infected with S pneumoniae 3773. Particulars: Mus musculus, two doses at 1 hour and 4 hour after intraperitoneal infection with S pneumoniae 3773, survival on day seven, read-out: ED50 (Dose protecting 50% of infected mice). On the procedure:
The in vivo efficacy of compounds of the invention was evaluated by determining ED50 by oral administration of compounds to group of mice (6 mice/dose group) intraperitoneally infected with (5×10^7-1×10^8 CFU/mouse) S pneumoniae 3773. Two doses of compounds of the invention and Telithromycin were administered at 1 hour and 4 hour after infection. On day seven, percentage of animals surviving in various dose groups were employed to determine ED50 (Dose protecting 50% of infected mice)

Values after ≈ are worked out from the molar mass of the structure shown.

In the case of `CC[C@@H]1OC(=O)[C@@](C)(F)C(=O)[C@H](C)[C@@H](OC2O[C@H](C)C[C@H](N(C)C)[C@H]2O)[C@](C)(OC)C[C@@H](C)C(=O)[C@H](C)[C@H]2[C@H](/C(N)=N/OCc3ncc(-c4ccon4)cn3)C(=O)O[C@@]21C` (stereo partly drawn) [Example 3, (11S,21R)-3-decladinosyl-11,12-dideoxy-2-fluoro-6-O-methyl-3-oxo-12,11-{oxycarbonyl-[E-N-[(5-isoxazol-3-yl-pyrimidin-2-yl)-methoxy]-carboxamidino]methylene}-erythromycin A], the melting point fell in the range of 196 to 197 °C.
`CC[C@@H]1OC(=O)[C@@](C)(F)C(=O)[C@H](C)[C@@H](OC2O[C@H](C)C[C@H](N(C)C)[C@H]2O)[C@](C)(OC)C[C@@H](C)C(=O)[C@H](C)[C@H]2[C@H](/C(N)=N/OCc3nnc(-c4ncccn4)s3)C(=O)O[C@@]21C` (stereo partly drawn) [Example 7, (11S,21R)-3-decladinosyl-11,12-dideoxy-2-fluoro-6-O-methyl-3-oxo-12,11-{oxycarbonyl-[E-N-[(5-pyrimidin-2-yl-1,3,4-thiadiazol-2-yl)-methoxy]-carboxamidino]methylene}-erythromycin A]: the melting point is 192 to 194 °C.
The same measure, in the same setting: to `CC[C@@H]1OC(=O)[C@H](C)C(=O)[C@H](C)[C@@H](OC2O[C@H](C)C[C@H](N(C)C)[C@H]2O)[C@](C)(OC)C[C@@H](C)C(=O)[C@H](C)[C@H]2[C@H](/C(N)=N/O[C@@H](C)c3nnc(-c4ccccn4)s3)C(=O)O[C@@]21C` (stereo partly drawn) [Example 33, (11S,21R)-3-decladinosyl-11,12-dideoxy-6-O-methyl-3-oxo-12,11-{oxycarbonyl-[E-N-[1-(5-pyridin-2-yl-1,3,4-thiadiazol-2-yl)-(S)-ethoxy]-carboxamidino]methylene}-erythromycin A] belongs 135 to 137 °C.
Take `CC[C@H]1OC(=O)[C@H](C)C(=O)[C@H](C)[C@@H](O[C@@H]2O[C@H](C)C[C@H](N(C)C)[C@H]2O)[C@](C)(OC)C[C@@H](C)C(=O)[C@H](C)[C@H]2N(CCCCn3cnc(-c4cccnc4)c3)C(=O)O[C@]12C` [Telithromycin]: the MIC in data set [1] was 4 to 8 µg/mL (≈ 4.93 to 9.85 µM); in data set [2], 4 µg/mL (≈ 4.93 µM); in data set [3], 0.007 to 0.5 µg/mL (≈ 0.00862 to 0.616 µM); in data set [4] it was 0.015 to 1 µg/mL (≈ 0.0185 to 1.23 µM); in data set [5], 0.007 to 0.015 µg/mL (≈ 0.00862 to 0.0185 µM); in data set [6], 16 µg/mL (≈ 19.7 µM). Further, the ED50 in data set [7] lay in the range of 75 to 100 mg/kg.

The values are drawn from patent US9175031B2, “Ketolide compounds” (WOCKHARDT LIMITED, priority 2010, dated 2015).
